Measurements from patent US11883387B2, “PqsR inverse agonists” (HELMHOLTZ-ZENTRUM FÜR INFEKTIONSFORSCHUNG GMBH, priority 2018, dated 2024).

Columns and labels:
[1] = Metabolic stability against human hepatic S9 fraction; assay type: in vitro ADME; details: pooled human liver S9 fraction; 1 μM compound, 1 mg/mL pooled human liver S9, phase I and II cofactors, 37° C.; read-out: half-life (t1/2) towards human hepatic S9 fraction
Procedure: For the evaluation of combined phase I and phase II metabolic stability, the compound (1 μM) was incubated with 1 mg/mL pooled human liver S9 fraction (BD Gentest), 2 mM NADPH regenerating system, 1 mM UDPGA, 10 mM MgCl2 and 0.1 mM PAPS at 37° C. for 0, 5, 15, 30 and 60 min. The metabolic stability of Testosterone (1 μM) and 7-hydroxycoumarin (1 μM) were determined in parallel to confirm the enzymatic activity of the S9 fraction. The incubation was stopped by precipitation of S9 enzymes with 2 volumes of cold acetonitrile containing internal standard (750 nM Diphenhydramine). Samples were stored on ice for 10 min and precipitated protein was removed by centrifugation (10 min, 4° C., 17,000 g). Concentration of the remaining test compound at the different time points was analyzed by LC-MS/MS (TSQ Quantum Access MAX, Thermo Fisher, Dreieich, Germany) and used to determine half-life (t/2).

[2] = tested on: eDNA content of P. aeruginosa PA14 biofilm; assay: Biofilm assay, eDNA content (propidium iodine); assay type: cell-based; details: Pseudomonas aeruginosa; PA14, propidium iodine fluorescence; read-out: IC50-value towards eDNA content of the biofilm
Procedure: (§1) Commonly used crystal violet (CV) assay procedures (PMID: 3905855, PMID: 10547784, PMID: 22488868) were adapted for determination of biofilm mass. For the cultivation of biofilm in 96 well plates, the protocol described by Frei et al. (PMID: 22488868) was slightly modified by replacement of medium and Pseudomonas strain used. The experiment was performed using P. aeruginosa PA14 strain and PPGAS medium. CV staining was used to detect compound effects on the overall biofilm biomass. Impact on eDNA was assessed by incubation of biofilm with propidium iodine solution (0.05 mg ml^−1) for 24 h and detection of specific florescence at 620 nm (excitation 544 nm) after a thorough washing step with 18 MΩ H2O. (PMID: 16430688)

HepG2 cells = assay: Cytotoxicity (MTT) toward HepG2; assay type: cell-based; details: Homo sapiens, 48 h, upper class: or at solubility maximum, read-out: IC50-value towards HepG2
Procedure: (§2) To obtain information regarding the toxicity of our compounds, their impact on the viability of human cells was investigated. HepG2 and HEK293 cells (2×10^5 per well) were seeded in 24-well, flat-bottomed culture plates. 24 h after seeding the cells the incubation was started by the addition of compounds in a final DMSO concentration of 1%. The living cell mass was determined 48 h after treatment with compounds by adding 0.1 volumes of 3-(4,5-dimethylthiazol-2-yl)-2,5-diphenyltetrazolium bromide (MTT) solution (5 mg per mL sterile PBS) (Sigma, St. Louis, MO) to the wells. After incubating the cells for 30 min at 37° C. (atmosphere containing 5% CO2), MTT crystals were dissolved in a solution containing 10% SDS and 0.5% acetic acid in DMSO. The optical density (OD) of the samples was determined photometrically at 570 nm in a FLUOstar Omega plate reader (BMG labtech, Ortenberg, Germany). To obtain inhibition values for each sample, their ODs were related to those of DMSO controls.

PqsR = PqsR (Pseudomonas aeruginosa, UniProt Q9I4X0); assay: E. coli based β-galactosidase reporter gene assay (PqsR inverse agonistic activity); assay type: cell-based; parameters: expressed in transfected cells; host or cells: Escherichia coli DH5α
Chain of PqsR (Q9I4X0 whole entry): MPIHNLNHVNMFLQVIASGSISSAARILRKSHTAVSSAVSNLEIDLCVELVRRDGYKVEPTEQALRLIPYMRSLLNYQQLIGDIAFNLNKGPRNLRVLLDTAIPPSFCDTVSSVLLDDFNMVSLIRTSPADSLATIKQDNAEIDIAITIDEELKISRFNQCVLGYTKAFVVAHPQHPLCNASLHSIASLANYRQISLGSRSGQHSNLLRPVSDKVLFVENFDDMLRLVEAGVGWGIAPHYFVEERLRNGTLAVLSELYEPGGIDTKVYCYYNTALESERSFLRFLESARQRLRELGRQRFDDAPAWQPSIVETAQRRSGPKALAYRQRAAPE
How it was run: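 E. coli DH5α carrying pEAL08-2 (tac-driven pqsR with pqsA-lacZ) was grown to OD600 0.2 and incubated with 0.001–10 μM compound plus 50 nM PQS for 2.5 h at 37 °C. β-Galactosidase activity was measured by ONPG conversion in permeabilized cells and normalized between the no-PQS and solvent controls. IC50 came from concentration variation.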

[3] = tested on: P. aeruginosa pyocyanin production; assay: Pyocyanin assay; assay type: cell-based, P. aeruginosa PA14; details: Pseudomonas aeruginosa, PA14, 16 h, read-out: IC50-value towards pyocyanin production, PA14 in PPGAS medium, 16 h
How it was run: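 PA14 in PPGAS medium from OD600 0.02 grown 16 h at 37 °C, 200 rpm, with compounds. Pyocyanin extracted with chloroform, back-extracted into 0.2 M HCl, OD520 normalised to OD600.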

HEK293 cells = assay: Cytotoxicity (MTT) toward HEK293; assay type: cell-based; details: Homo sapiens, 48 h, upper class: or at solubility maximum, read-out: IC50-value towards HEK293
Procedure: as §2

[4] = tested on: P. aeruginosa PA14 biofilm; assay: Biofilm assay, crystal violet staining (biofilm mass); assay type: cell-based; details: Pseudomonas aeruginosa, PA14, PPGAS medium, read-out: IC50-value towards biofilm formation
Procedure: as §1

FC(F)(F)c1cc(NCc2cn(-c3ccc(Oc4ccccc4)cc3)nn2)ccn1 [Compound 001, N-((1-(4-Phenoxyphenyl)-1H-1,2,3-triazol-4-yl)methyl)-2-(trifluoromethyl) pyridin-4-amine]
half-life at 1 μM [1]: 41 to 60 min
IC50 [2]: < 0.5 µM
IC50 (HepG2 cells): 25 to 50 µM
IC50 (PqsR): ≤ 0.05 µM
IC50 [3]: ≤ 0.25 µM
IC50 (HEK293 cells): 25 to 50 µM
IC50 [4]: ≤ 0.5 µM
